Source: patent US7470543B2, “Methods for identifying ligands using competitive binding 1H NMR experiments” (Nerviano Medical Sciences S.r.l., priority 2002, dated 2008)

How the values were obtained:
HSA (Sudlow site I) = target: T1, HSA (Sudlow site I) (Homo sapiens, UniProt P02768); assay: doubly-selective R1-filtered and spin-echo 1H NMR competition binding, spy molecule warfarin; details: 25 μM, HSA 0 to 2.5 μM
T1 construct: Fatty acid free human serum albumin (A-3782) was purchased from Sigma and used without further purification; purchased Sigma A-3782
T1 sequence (P02768 25-609): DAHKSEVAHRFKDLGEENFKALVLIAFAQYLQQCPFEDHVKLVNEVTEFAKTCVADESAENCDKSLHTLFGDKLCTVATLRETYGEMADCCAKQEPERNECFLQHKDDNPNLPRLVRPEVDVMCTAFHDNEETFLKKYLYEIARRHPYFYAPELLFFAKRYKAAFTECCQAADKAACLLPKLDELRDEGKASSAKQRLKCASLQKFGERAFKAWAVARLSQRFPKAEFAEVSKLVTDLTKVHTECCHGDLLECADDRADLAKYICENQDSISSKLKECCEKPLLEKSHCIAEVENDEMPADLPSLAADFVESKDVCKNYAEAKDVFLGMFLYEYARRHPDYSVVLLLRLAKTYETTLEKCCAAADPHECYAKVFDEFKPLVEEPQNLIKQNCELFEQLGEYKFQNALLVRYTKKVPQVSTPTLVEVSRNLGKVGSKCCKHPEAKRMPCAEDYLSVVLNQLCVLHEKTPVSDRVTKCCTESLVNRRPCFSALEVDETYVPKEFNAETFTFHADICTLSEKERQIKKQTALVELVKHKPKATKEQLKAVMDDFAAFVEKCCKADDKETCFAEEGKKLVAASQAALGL

HSA [1] = target: T2, HSA (Homo sapiens, UniProt P02768); details: up to concentration of several hundred μM; cited from earlier work
T2 sequence (P02768 25-609): as above

HSA [2] = target: T2, HSA; assay: previous NMR measurement of the low affinity second binding site for Trp; details: 20° C., measured previously by NMR
From the text: […]. J., 273, 641-644 (1991)) is somewhat larger. This small difference can probably be ascribed to the presence of a low affinity second binding site for Trp. […] Despite this complication, the values that are rapidly derived from the NMR screening experiments serve for most of the purposes in the early stages of drug discovery.

HSA [3] = target: T2, HSA; details: 20° C.; read-out: KD^(a) binding constant of L-Trp measured with equilibrium dialysis; cited from earlier work

Row | Structure (SMILES) | binding of the control molecule to HSA (signal intensity as a function of protein concentration) (HSA (Sudlow site I)) | interaction with HSA (HSA [1]) | affinity for the low affinity second binding site (HSA [2]) | Kd (HSA [3]) [µM]
1 | Cc1ccc2[nH]cc(CC(N)C(=O)O)c2c1 (stereo not shown) [5-CH3 D,L Trp (2), 5-CH3 D,L Trp] | does not bind | does not interact with HSA | – | –
2 | N[C@@H](Cc1c[nH]c2ccccc12)C(=O)O [Trp, tryptophan] | – | – | several hundreds | 23
